Key:
PC-3 cells = assay: MTT cell proliferation assay, PC-3 prostate cancer cells; type: cell-based, human; conditions: 24 h
Procedure: FIG. 8. […] Prostate cancer cells PC-3 and DU145 were seeded in 96-well plates at 1×10^4 cells/well. […] The cell proliferation was assayed by culturing the cells for 24 h, then adding 10 μl of MTT reagent with incubation for 2 h. The reaction was stopped by adding 100 μl of solubilization solution. The relative cell proliferation was obtained by the reading at 590 nm which was recorded in a spectrophotometer, and normalized to the value of control.
FIG. 9. […] A, Cisplatin-resistant ovarian cancer cell line A2780/CP70, and B, prostate cancer cells PC-3 were seeded in 96-well plates at 1×10^4 cells/well and incubated overnight.
FIG. 17. […] A, the prostate cancer cells PC-3 and DU145; B, colon cancer cells Colo-205 and HCT-116; C, lung cancer cells A549 and H460 cells were plated at 1×10^4 cells per well in a 96 well plate in 100 μl of media.
FIG. 18. […] A and B, the prostate cancer cells PC-3 and DU145; C, colon cancer cells Colo-205 and HCT-116; D, lung cancer cells A549 and H460 cells were plated at 1×10^4 cells per well in a 96 well plate in 100 μl of media. […] The cell proliferation was analyzed by MTT assay.
FIG. 19. […] A, prostate cancer cells PC-3; and B, DU145 cells were plated at 1×10^4 cells per well in a 96 well plate in 100 μl of media. […] Cell proliferation was examined by MTT assay.
FIG. 23. […] Cell proliferation was examined by MTT assay.

Colo-205 cells = assay: MTT cell proliferation assay, Colo-205 colon cancer cells; type: cell-based, human; conditions: Colo-205, apigenin alone, 24 h
Procedure: FIG. 17. […] A, the prostate cancer cells PC-3 and DU145; B, colon cancer cells Colo-205 and HCT-116; C, lung cancer cells A549 and H460 cells were plated at 1×10^4 cells per well in a 96 well plate in 100 μl of media. […] FIG. 20. […] A, the prostate cancer cells PC-3 and DU145; B, colon cancer cells Colo-205 and HCT-116; C, lung cancer cells A549 and H460 cells were plated at 1×10^4 cells per well in a 96 well plate. […] Cell proliferation was examined by MTT assay. […] FIG. 22. […] A, colon cancer cells Colo-205 and HCT-116; B, lung cancer cells A549 and H460 cells were plated at 1×10^4 cells per well in a 96 well plate the day before the treatment. […] Cell proliferation was examined by MTT assay. […] FIG. 24. […] The IC50 values for inhibiting cell proliferation were calculated from cell proliferation assay as described above.

[1] = system: human fibroblast GM847 cells; assay: MTT proliferation, human fibroblast GM847 cells; type: cell-based; conditions: same experimental conditions as cancer cells, 24 h
Procedure: (§1) FIG. 1. […] (A) A2780/CP70 cells and human fibroblast GM847 cells were seeded in 96-well plate at 4×10^3 cells per well and incubated overnight. […] The cells were incubated for 24 h. Cell proliferation was determined by MTT reduction. […] Cells were trypsinized, harvested, washed once with PBS buffer, and stained using the Annexin-V-Folus Kit as per the manufacture's instructions. […] After incubation, all cells were collected and total DNA was isolated. Eight (8) μg of DNA was resolved on 1.8% agarose gel. […] (D) Treatment of GM847 cells was the same as that of 5D. […] Cleavage of caspase-3 and PARP was detected by western-blot.

normal human cells = assay: Apoptosis of normal human cells (GM847 fibroblasts); type: cell-based; conditions: at up to 40 μM apigenin
Procedure: as §1

A2780/CP70 tumors = assay: New blood vessel formation in tumors on CAM; type: in vivo, chicken embryo; conditions: 15 μM apigenin, 100 h
Procedure: FIG. 7. […] A2780/CP70 ovarian cancer cells were mixed with Matrigel and implanted onto the chorioallantoic membrane (CAM) of a 9-day old embryo. In 100 h, the tumor was cut off and the newly-formed blood vessels on the back of the tumor were determined.

A2780/CP70 cells = assay: MTT cell proliferation assay, A2780/CP70 ovarian cancer cells; type: cell-based, human; conditions: A2780/CP70, apigenin alone, 24 h
Procedure: as §1
FIG. 3. […] A2780/CP70 cells were seeded in 96-well plates and incubated overnight. The old medium was discarded and fresh medium with cisplatin (CDDP) in the presence or absence of apigenin (Api) was added. In 24 h, the cell proliferation was determined by means of MTT reduction method.
FIG. 9. […] A, Cisplatin-resistant ovarian cancer cell line A2780/CP70, and B, prostate cancer cells PC-3 were seeded in 96-well plates at 1×10^4 cells/well and incubated overnight. […] In 24 h, the cell proliferation was assayed by using a MTT assay kit. *indicates significant difference compared to cisplatin alone (p<0.01).

[2] = system: tumors induced by A2780/CP70 cells; assay: Tumor weight of A2780/CP70 tumors on CAM; type: in vivo, chicken embryo; conditions: 10 μM apigenin or 2.5 μM CDDP+10 μM apigenin, 10 days
Procedure: FIG. 4. […] The A2780/CP70 cells were seeded into 100 mm dish and grown to 90-100% confluence. […] In 10 days, the tumors were harvested and weighed. The blood vessel numbers of the tumor were counted under×100. At least five areas were determined. The data are mean±SD from two experiments (n=8). A, representative tumor morphology; B, tumor weight; C, relative numbers of blood vessels.

A549 tumors = assay: A549 tumor growth in nude mice; type: in vivo; conditions: 3 mg/kg intraperitoneal three times a week, day 40
Procedure: FIG. 15. […] Each treatment group contained 10 mice. […] The mice were euthanized on day 40. A, representative tumors from the control and apigenin-treated groups. Scale bar, 1 cm. B, tumor volumes were measured by the width and length of tumors from 10 mice in each treatment when tumors were visible. The mean±S.D. were obtained from 10 mice. C, the tumors were removed from mice, measured by the width and length, and analyzed as above. D, the mean±S.D. of the tumor weight. *, significant difference when compared with the solvent control (p<0.05).

[3] = system: HIF-1 expression in OVCAR-3 cells; assay: HIF-1 immunoblotting, OVCAR-3; type: cell-based, human
Excerpt: FIG. 5. […] The cells treated with solvent alone were used as a control. HIF-1α and HIF-1β protein levels were detected by immunoblotting as described in Materials and Methods. GAPDH was used as an internal control to test the loading and transfer efficiency.

## O=c1cc(-c2ccc(O)cc2)oc2cc(O)cc(O)c12 [apigenin, 4′,5,7,-trihydroxyflavone]
PC-3 cells; PC-3, 15 μM apigenin
  effect on sensitivity to etoposide treatment: increased the sensitivity
PC-3 cells; PC-3, apigenin alone
  effect on cell proliferation: inhibited
Colo-205 cells
  effect on cell proliferation: inhibited the proliferation
[1]
  effect on human normal fibroblast cells: little effects
Normal human cells
  induction of apoptosis of normal human cells: did not induce apoptosis
A2780/CP70 tumors
  effect on new blood vessel formation (angiogenesis) in tumors: inhibited new blood vessel formation
A2780/CP70 cells
  effect on cell proliferation: inhibited cell proliferation
[2]
  inhibition of tumor growth: 40%
A549 tumors
  effect on tumor growth in vivo: inhibited tumor growth in vivo
[3]
  effect on HIF-1 expression: inhibited HIF-1 expression
